“Also recorded” adds a separate entry of the source.
Key:
[1] = biological target: T1, FAAH (Homo sapiens, UniProt O00519); conditions: FAAH substrate preference; cited from earlier work
T1 sequence (O00519 1-579): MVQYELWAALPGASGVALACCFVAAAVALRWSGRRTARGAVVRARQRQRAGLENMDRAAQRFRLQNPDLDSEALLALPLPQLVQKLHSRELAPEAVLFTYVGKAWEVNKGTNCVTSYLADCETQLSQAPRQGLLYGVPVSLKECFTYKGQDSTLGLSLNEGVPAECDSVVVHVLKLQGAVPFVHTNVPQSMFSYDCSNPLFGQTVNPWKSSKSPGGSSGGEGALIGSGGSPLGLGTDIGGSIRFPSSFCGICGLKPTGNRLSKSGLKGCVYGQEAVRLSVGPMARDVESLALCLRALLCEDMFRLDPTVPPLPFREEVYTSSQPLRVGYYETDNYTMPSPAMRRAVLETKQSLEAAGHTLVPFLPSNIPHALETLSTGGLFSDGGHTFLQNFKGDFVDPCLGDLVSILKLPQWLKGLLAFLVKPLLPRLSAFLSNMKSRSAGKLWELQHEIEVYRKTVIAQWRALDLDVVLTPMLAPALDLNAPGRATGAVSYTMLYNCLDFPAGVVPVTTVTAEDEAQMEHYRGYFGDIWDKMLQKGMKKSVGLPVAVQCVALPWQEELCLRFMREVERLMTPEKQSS

[2] = biological target: T2, FAAH (Rattus norvegicus, UniProt P97612); assay: FAAH inhibition: breakdown of 14C-oleamide to oleic acid, solubilized liver plasma membrane extract; format: biochemical; conditions: for Ki: Dixon method, 14C-oleamide substrate, pH 9.0, 20-23° C., read-out: K1
T2 construct: using a solubilized liver plasma membrane extract containing FAAH; from tissue; host or cells: liver (solubilized plasma membrane extract)
T2 sequence (P97612 1-579): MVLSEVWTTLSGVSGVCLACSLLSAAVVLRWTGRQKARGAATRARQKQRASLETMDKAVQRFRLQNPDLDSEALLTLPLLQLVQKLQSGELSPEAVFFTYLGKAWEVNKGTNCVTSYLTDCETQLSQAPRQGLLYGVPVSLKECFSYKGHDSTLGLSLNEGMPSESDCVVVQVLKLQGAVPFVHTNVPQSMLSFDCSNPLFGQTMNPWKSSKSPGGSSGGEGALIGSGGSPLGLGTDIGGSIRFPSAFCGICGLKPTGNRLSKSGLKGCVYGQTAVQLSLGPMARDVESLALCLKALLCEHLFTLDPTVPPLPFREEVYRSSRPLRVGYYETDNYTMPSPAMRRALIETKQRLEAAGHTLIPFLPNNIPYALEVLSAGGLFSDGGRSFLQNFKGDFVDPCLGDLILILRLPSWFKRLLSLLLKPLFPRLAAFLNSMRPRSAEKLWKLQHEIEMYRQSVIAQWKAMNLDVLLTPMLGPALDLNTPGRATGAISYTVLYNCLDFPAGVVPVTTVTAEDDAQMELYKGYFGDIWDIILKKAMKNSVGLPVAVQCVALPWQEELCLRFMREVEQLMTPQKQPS
Procedure: K1 values were determined by the Dixon method α-intercepts of weighted linear fits of […] plots at constant substrate concentration, which were converted to K1 values using the formula K1=−xint/[1+[S]/Km]).

[3] = tested on: treated animals; assay: In vivo sleep study with 17 (wakefulness, SWS2, REM sleep); conditions: 10 mg/kg ip, first 4 h of administration, versus controls
Text: The in vivo properties of the inhibitors detailed herein and their action on the identified oleamide and anandamide potential sites of action are presented herein. […] Accordingly, the inhibitors disclosed herein are useful as inhibitors of FAAH and related amidases, and as a therapeutic agents with applications as sleep aids or analgesics which act by preserving endogenous levels of oleamide and anandamide.

Row | SMILES | FAAH inhibitor potency / activity in words [2] | melting point [°C] | also measured
1 | CCCCC/C=C\C/C=C\C/C=C\C/C=C\CCCC(N)=O [arachidonamide] | – | – | rel. rate of hydrolysis [1]: 1
2 | CCCCCCCC/C=C\CCCCCCCC(=O)c1nnn(C)n1 [compound 14, 1-(2-Methyl-2H-tetrazol-5-yl)-1-oxo-9(Z)-octadecene] | matched the potency of the trifluoromethyl ketone 3 | – | –
3 | CCCCCCCC/C=C\CCCCCCCC(=O)c1cccnn1 [compound 17, 1-Oxo-1-(3-pyridazinyl)-9(Z)-octadecene] | more potent than 33 and 35, respectively | – | decrease of time spent in wakefulness, of the total time [3]: 14%; increase of time spent in REM sleep [3]: 75%; increase of time spent in REM sleep, of total time [3]: 4%; increase of time spent in SWS2 [3]: 45%; increase of time spent in SWS2, of the total time [3]: 10%; reduction of time spent in wakefulness [3]: 20%
4 | CCCCCCCC/C=C\CCCCCCCC(=O)c1nc2ccccc2o1 [compound 23, 1-(2-Benzoxazolyl)-1-oxo-9(Z)-octadecene] | more potent than 37 | – | –
5 | CCCCCCCC/C=C\CCCCCCCC(=O)c1nc2cccc(C)c2o1 [compound 28, 1-(7-Methylbenzoxazol-2-yl)-1-oxo-9(Z)-octadecene] | greatly diminished | – | –
6 | CCCCCCCC/C=C\CCCCCCCC(=O)c1nc2ncccc2o1 [compound 29, 1-(Oxazolo[4,5-b]pyridin-2-yl)-1-oxo-9(Z)-octadecene] | most potent inhibitor; also recorded: more potent than 33 and 35, respectively | – | –
7 | CCCCCCCC/C=C/CCCCCCCC(=O)c1nc2ncccc2o1 [compound 33, 1-(Oxazolo[4,5-b]pyridin-2-yl)-1-oxo-9(E)-octadecene] | more potent than 34 and 36 | – | –
8 | CCCCCCCC/C=C/CCCCCCCC(=O)c1cccnn1 [compound 35, 1-Oxo-1-(3-pyridazinyl)-9(E)-octadecene] | more potent than 34 and 36 | – | –
9 | CCCCCCCCCCCCCCCC(=O)c1nc2ncccc2o1 [compound 42, 1-(Oxazolo[4,5-b]pyridin-2-yl)-1-oxo-hexadecane] | – | 77 to 78 | –
10 | CCCCCCCCCCCCCC(=O)c1nc2ncccc2o1 [compound 43, 1-(Oxazolo[4,5-b]pyridin-2-yl)-1-oxo-tetradecane] | – | 73 to 74 | –
11 | CCCCCCCCCCCC(=O)c1nc2ncccc2o1 [compound 44, 1-(Oxazolo[4,5-b]pyridin-2-yl)-1-oxo-dodecane] | – | 68 to 69 | –
12 | CCCCCCCCCC(=O)c1nc2ncccc2o1 [compound 45, 1-(Oxazolo[4,5-b]pyridin-2-yl)-1-oxo-decane] | – | 60 to 62 | –
13 | CCCCCCCC(=O)c1nc2ncccc2o1 [compound 46, 1-(Oxazolo[4,5-b]pyridin-2-yl)-1-oxo-octane] | – | 60 to 61 | –
14 | CCCCCCC(=O)c1nc2ncccc2o1 [compound 47, 1-(Oxazolo[4,5-b]pyridin-2-yl)-1-oxo-heptane] | – | 52 to 53 | –
15 | CCCCCC(=O)c1nc2ncccc2o1 [compound 48, 1-(Oxazolo[4,5-b]pyridin-2-yl)-1-oxo-hexane] | – | 51 to 53 | –
16 | CCCCC(=O)c1nc2ncccc2o1 [compound 49, 1-(Oxazolo[4,5-b]pyridin-2-yl)-1-oxo-pentane] | – | 35 to 37 | –
17 | CC(=O)c1nc2ncccc2o1 [compound 50, 1-(Oxazolo[4,5-b]pyridin-2-yl)-1-oxo-ethane] | – | 103 to 105 | –
18 | O=C(CCCCCc1ccccc1)c1nc2ncccc2o1 [compound 53, 1-(Oxazolo[4,5-b]pyridin-2-yl)-1-oxo-6-phenylhexane] | – | 61 to 63 | Ki [2]: < 0.0002 µM
19 | O=C(CCCCCCc1ccccc1)c1nc2ncccc2o1 [compound 54, 1-(Oxazolo[4,5-b]pyridin-2-yl)-1-oxo-7-phenylheptane] | – | 60 to 61 | –
20 | O=C(CCCCCCCc1ccccc1)c1nc2ncccc2o1 [compound 55, 1-(Oxazolo[4,5-b]pyridin-2-yl)-1-oxo-8-phenyloctane] | – | 70 to 73 | –
21 | CCCCCCCCCCCC(O)c1nc2ncccc2o1 (stereo not shown) [compound 60, 1-Hydroxy-1-(oxazolo[4,5-b]pyridin-2-yl)dodecane] | – | – | Ki [2]: 1.2 µM; times less potent than the corresponding keto derivative (reduction to alcohol) ([2]; α-hydroxy versus α-keto): approximately 10^3 times
22 | CCCCCCCCCCCCCCCCCCc1nc2ncccc2o1 [compound 61, 1-(Oxazolo[4,5-b]pyridin-2-yl)octadecane] | inactive | 84 to 85 | additional fold loss of binding affinity with removal of the alcohol ([2]; versus α-hydroxy compound): 10^2 fold; fold loss of binding affinity / potency with removal of the keto group ([2]; versus α-keto compound): 10^5 fold
23 | CCCCCCCC/C=C\CCCCCCCC(N)=O [oleamide] | – | – | rel. rate of hydrolysis [1]: 0.7

Source: patent US6891043B2, “Inhibitors of fatty acid amide hydrolase” (The Scripps Research Institute, priority 2000, dated 2005)
